Structures can show the parent of a compound that is named as a salt.

For `CC(C)CN1CCC(Oc2ccc(-c3cccc(N)n3)c3ccccc23)C1` (stereo not shown) (as salt: hydrochloride) [Example 31, 6-[4-(1-Isobutyl-pyrrolidin-3-yloxy)-naphthalen-1-yl]-pyridin-2-ylamine], the melting point (in general, the temperature of the solid-liquid transition) was 78 to 85 °C.

`CN(C)CCCOc1ccc(-c2cccc(N)n2)c2ccccc12` (as salt: hydrochloride) [Example 35, 6-[4-(3-Dimethylamino-propoxy)-naphthalen-1-yl]-pyridin-2-ylamine]: the melting point is 105 to 120 °C.

Molecule `CN1CCC(Oc2ccc(-c3cccc(N)n3)c3ccccc23)CC1` (as salt: hydrochloride) [Example 33, 6-[4-(1-Methyl-piperidin-4-yloxy)-naphthalen-1-yl]-pyridin-2-ylamine] displayed a melting point of 179 to 187 °C.

Turning to `COc1ccc2[nH]c3c(c2c1)CCN(CCc1ccc(-c2cccc(N)n2)c2ccccc12)C3`, the melting point is 132 to 138 °C.

In turn, `Nc1cccc(-c2ccc(OCC3CNC3)c3ccccc23)n1` (as salt: hydrochloride) [Example 73, 6-[4-(Azetidin-3-ylmethoxy)-naphthalen-1-yl]-pyridin-2-ylamine] yielded a melting point of 88 to 110 °C.

`Nc1cccc(-c2ccc(CCNCc3ccco3)c3ccccc23)n1` (as salt: hydrochloride) [Example 10, 6-(4-{2-[(Furan-2-ylmethyl)-amino]-ethyl}-naphthalen-1-yl)-pyridin-2-ylamine] had a melting point of 185 to 205 °C.

Take `Nc1cccc(-c2ccc(OC3CCN(Cc4ccccc4)CC3)c3ccccc23)n1` (as salt: hydrochloride) [Example 24, 6-[4-(1-Benzyl-piperidin-4-yloxy)-naphthalen-1-yl]-pyridin-2-ylamine]: the melting point was 265 to 285 °C (dec.).

`COc1cc(CNCCc2ccc(-c3cccc(N)n3)c3ccccc23)cc(OC)c1OC` (as salt: hydrochloride) [Example 8, 6-{4-[2-(3,4,5-Trimethoxy-benzylamino)-ethyl]-naphthalen-1-yl}-pyridin-2-ylamine] gave a melting point of 75 to 95 °C.

The molecule `Nc1cccc(-c2ccc(CCN3CC4C(N)C4C3)c3ccccc23)n1` (stereo not shown) (as salt: hydrochloride) [Example 2, 3-{2-[4-(6-Amino-pyridin-2-yl)-naphthalen-1-yl]-ethyl}-3-aza-bicyclo[3.1.0]hex-6-ylamine] had a melting point of 250 to 260 °C.

`Nc1cccc(-c2ccc(OC3CN(Cc4ccco4)C3)c3ccccc23)n1` (as salt: hydrochloride) [Example 67, 6-[4-(1-Furan-2-ylmethyl-azetidin-3-yloxy)-naphthalen-1-yl]-pyridin-2-ylamine] yielded a melting point of 75 to 90 °C.

Take `Nc1cccc(-c2ccc(CCN3CCN(CCc4ccccc4)CC3)c3ccccc23)n1` (as salt: hydrochloride) [Example 1, 6-{4-[2-(4-Phenethyl-piperazin-1-yl)-ethyl]-naphthalen-1-yl)-pyridin-2-ylamine]: the melting point was in the range of 80 to 105 °C.

Molecule `CN(CCOc1ccc(-c2cccc(N)n2)c2c1CCCC2)C(C)(C)C` (as salt: hydrochloride) [Example 39, 6-{4-[2-(tert-Butyl-methyl-amino)-ethoxy]-5,6,7,8-tetrahydro-naphthalen-1-yl}-pyridin-2-ylamine] yielded a melting point of 65 to 90 °C.

In turn, `Nc1cccc(-c2ccc(OCCN3CCN(CCc4ccccc4)CC3)c3ccccc23)n1` (as salt: hydrochloride) [Example 17, 6-{4-[2-(4-Phenethyl-piperazin-1-yl)-ethoxy]-naphthalen-1-yl}-pyridin-2-ylamine] displayed a melting point of 45 to 80 °C.

`Nc1cccc(-c2ccc(OC3CCN(Cc4ccccc4)C3)c3ccccc23)n1` (stereo not shown) (as salt: hydrochloride) [Example 25, 6-[4-(1-Benzyl-pyrrolidin-3-yloxy)-naphthalen-1-yl]-pyridin-2-ylamine] had a melting point of 160 to 170 °C.

In the case of `CC(C)CN1CCN(CCOc2ccc(-c3cccc(N)n3)c3c2CCC3)CC1` (as salt: hydrochloride) [Example 62, 6-[7-[(4-Isobutylpiperazin-1-yl)-ethoxy]-indan-4-yl]-pyridin-2-ylamine], the melting point was in the range of 170 to 190 °C.

`CN1CC(Oc2ccc(-c3cccc(N)n3)c3ccccc23)C1` (as salt: hydrochloride) [Example 75, 6-[4-(N-methyl-azetidin-3-yloxy)-naphthalen-1-yl]-pyridin-2-ylamine] came in with a melting point of 240 to 255 °C.

The molecule `CC(C)CN1CC(Oc2ccc(-c3cccc(N)n3)c3ccccc23)C1` (as salt: hydrochloride) [Example 65, 6-[4-(1-Isobutyl-azetidin-3-yloxy)-naphthalen-1-yl]-pyridin-2-ylamine] yielded a melting point of 133 to 148 °C.

Consider `Nc1cccc(-c2ccc(OC3CN(Cc4cccnc4)C3)c3ccccc23)n1` (as salt: hydrochloride) [Example 72, 6-[4-(1-Pyridin-3-ylmethyl-azetidin-3-yloxy)-naphthalen-1-yl]-pyridin-2-ylamine], for which the melting point was in the range of 150 to 180 °C.

`Nc1cccc(-c2ccc(OC3CCNCC3)c3ccccc23)n1` (as salt: hydrochloride) [Example 27, 6-[4-(Piperidin-4-yloxy)-naphthalen-1-yl]-Pyridin-2-ylamine] registered a melting point of 65 to 75 °C.

Molecule `Nc1cccc(-c2ccc(CCNCc3ccc4c(c3)OCO4)c3ccccc23)n1` (as salt: hydrochloride) [Example 6, 6-(4-{2-[(Benzo[1,3]dioxol-5-ylmethyl)-amino]-ethyl}-naphthalen-1-yl)-pyridin-2-ylamine] had a melting point of 80 to 110 °C.

In turn, `Nc1cccc(-c2ccc(OC3CN(Cc4ccccn4)C3)c3ccccc23)n1` (as salt: hydrochloride) [Example 74, 6-[4-(1-Pyridin-2-ylmethyl-azetidin-3-yloxy)-naphthalen-1-yl]-pyridin-2-ylamine] had a melting point of 97 to 120 °C.

Regarding `Nc1cccc(-c2ccc(CCNCc3ccc(Cl)c(Cl)c3)c3ccccc23)n1` (as salt: hydrochloride) [Example 11, 6-{4-[2-(3,4-Dichloro-benzylamino)-ethyl]-naphthalen-1-yl}-pyridin-2-ylamine], the melting point lay in the range of 145 to 170 °C.

`Nc1cccc(-c2ccc(OCCN3CCN(CCc4ccccc4)CC3)c3c2CCC3)n1` (as salt: hydrochloride) [Example 61, 6-[7-[(4-Phenethylpiperazin-1-yl)-ethoxy]-indan-4-yl]-pyridin-2-ylamine] had a melting point of 105 to 130 °C.

Take `Nc1cccc(-c2ccc(OCC3CCCNC3)c3ccccc23)n1` (stereo not shown) (as salt: hydrochloride) [Example 64, 6-[4-(Piperidin-3-ylmethoxy)-naphthalen-1-yl]-pyridin-2-ylamine]: the melting point lay within 164 to 185 °C.

The molecule `CC(C)CN1CCC(Oc2ccc(-c3cccc(N)n3)c3ccccc23)CC1` (as salt: hydrochloride) [Example 29, 6-[4-(1-Isobutyl-piperidin-4-yloxy)-naphthalen-1-yl]-pyridin-2-ylamine] came in with a melting point of 198 to 210 °C.

As to `CC(C)N1CC(Oc2ccc(-c3cccc(N)n3)c3ccccc23)C1` (as salt: hydrochloride) [Example 76, 6-[4-(N-Isopropyl-azetidin-3-yloxy)-naphthalen-1-yl]-pyridin-2-ylamine], the melting point lay in the range of 120 to 135 °C.

The molecule `Nc1cccc(-c2ccc(OCCNCc3ccc4c(c3)OCO4)c3ccccc23)n1` (as salt: hydrochloride) [Example 14, 6-(4-{2-[(Benzo[1,3]dioxol-5-ylmethyl)-amino]-ethoxy}-naphthalen-1-yl)-pyridin-2-ylamine] registered a melting point of 60 to 80 °C.

Molecule `Nc1cccc(-c2ccc(OCCN3CCC(N)C3)c3ccccc23)n1` (stereo not shown) (as salt: hydrochloride) [Example 18, 6-{4-[2-(3-Amino-pyrrolidin-1-yl)-ethoxy]-naphthalen-1-yl}-pyridin-2-ylamine] came in with a melting point of 70 to 90 °C.
